Source: patent US8889881B2, “Compound having skin-whitening, anti-oxidizing and PPAR activities and medical use therefor” (Pusan National University Industry —University Cooperation …, priority 2011, dated 2014)

Assays:
[1] = biological target: T1, PPAR alpha-LBD (Homo sapiens, UniProt Q07869); test: PPAR assay, PPARα; conditions: for PPARα activation (competitive activation rate), compared with fenofibrate: sample final concentration 100 μM, positive control fenofibrate, FIGS. 5 and 6; for simultaneous activation of PPARα and PPARγ: summary of the PPARα and PPARγ assays, sample 100 μM
T1 sequence (Q07869 239-466 limits assumed): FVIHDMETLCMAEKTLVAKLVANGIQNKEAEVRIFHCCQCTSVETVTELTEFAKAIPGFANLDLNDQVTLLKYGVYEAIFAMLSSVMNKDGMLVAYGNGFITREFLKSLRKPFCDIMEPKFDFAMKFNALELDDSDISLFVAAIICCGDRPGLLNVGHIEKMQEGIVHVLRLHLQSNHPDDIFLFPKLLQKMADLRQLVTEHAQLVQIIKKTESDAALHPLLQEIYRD

[2] = biological target: T2, PPAR gamma-LBD (Homo sapiens, UniProt P37231); test: PPAR assay, PPARγ; type: binding; conditions: sample final concentration 100 μM; positive control rosiglitazone; FIGS. 7 and 8
T2 sequence (P37231 238-503 limits assumed): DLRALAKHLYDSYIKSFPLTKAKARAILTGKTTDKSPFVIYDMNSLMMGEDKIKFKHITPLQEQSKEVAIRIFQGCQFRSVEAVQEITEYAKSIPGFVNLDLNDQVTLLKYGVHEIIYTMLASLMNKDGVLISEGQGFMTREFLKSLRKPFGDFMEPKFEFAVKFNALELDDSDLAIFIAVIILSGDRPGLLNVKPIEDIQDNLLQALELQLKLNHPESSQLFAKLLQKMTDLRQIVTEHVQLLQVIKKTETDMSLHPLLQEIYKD

[3] = system: YPEN-1 cells (rat prostatic endothelial cell line); test: In vitro ROS scavenging activity assay (DCFDA); type: cell-based; conditions: cells pre-treated with 50 μM SIN-1 for 1 hour; DCFDA fluorescence; positive control trolox; FIGS. 1 and 2
Procedure: YPEN-1 cells (rat prostatic endothelial cell line) was obtained from American type culture collection (ATCC, Manassas, Va., USA), and the cells were cultured by using a dulbecco's modified eagle medium (DMEM, Nissui, Tokyo, Japan) containing 2 mM L-glutamine, […], 2.5 mg/L amphotericin B, and 5% inactivated fetal bovine serum (FBS). Also, the cells were maintained at a temperature of 37° C. in a humid atmosphere-like condition containing 5% CO2 and 95% air. […] The cells were sub-cultured in 100 mm plastic flask (Corning Co., New York, USA) every two days to maintain the cell line.
2′,7′-dichlorodihydrofluorescein diacetate (DCFDA) assay method according to a conventionally known method (Chem Res Toxicol. 5: 227-231, 1992) was used. In detail, 12.5 mM DCFDA dissolved in 99.9% ethanol and 600 U/ml esterase dissolved in tertiary distilled water were stored as a stock solution at a temperature of −20° C., and a 2′,7′-dichlorodihydrofluorescein (DCFH) solution prepared by mixing 10 mM DCFDA and 6 U/ml esterase was cultured at a temperature of 22° C. for 20 minutes, and then, refrigerated in a dark place before use. […] Vascular endothelial cells that were pre-treated with 50 μM 3-morpholinosydnonimine hydrochloride (SIN-1) for 1 hour were used as a reactive oxygen generation source.

For `COc1ccc(-c2nc3ccccc3s2)cc1OC` [Compound 20, 2-(3,4-dimethoxyphenyl)benzo[d]thiazole], the “PPARα activation (competitive activation rate), compared with fenofibrate” value (“PPARα activation … compared with fenofibrate” below) [1] was “very excellent PPARα activation agent compared to fenofibrate”, the “simultaneous activation of PPARα and PPARγ” value (from here on “simultaneous activation”) [1] was “simultaneously activates PPARα and PPARγ” and the “PPARγ activation (competitive activation rate), compared with rosiglitazone” value (from here on “PPARγ activation … compared with rosiglitazone”) [2] was “very excellent PPARγ activation agent compared to rosiglitazone”. The melting point was 135 to 137.2 °C.
With `CC(C)(C)[Si](C)(C)Oc1ccc2c(-c3ccccc3)cc(=O)oc2c1O[Si](C)(C)C(C)(C)C` [Compound 100, 7,8-bis(tert-butyldimethylsilyloxy)-4-phenyl-2H-chromen-2-one] the “scavenging effects on ROS generated by vascular endothelial cells, compared with trolox” value (“scavenging effects … compared with trolox” for short) [3] was “as high scavenging effects on ROS generated by vascular endothelial cells as trolox”.
In the case of `COc1cc(-c2nc3cc(C(F)(F)F)ccc3s2)ccc1O` [Compound 31, 2-methoxy-4-(5-(trifluoromethyl)benzo[d]thiazol-2-yl)phenol], the “PPARα activation … compared with fenofibrate” value [1] is reported as “very excellent PPARα activation agent compared to fenofibrate”, the “simultaneous activation” value [1] is reported as “simultaneously activates PPARα and PPARγ” and the “PPARγ activation … compared with rosiglitazone” value [2] is reported as “very excellent PPARγ activation agent compared to rosiglitazone”. It also gave a melting point of 155.7 to 159.9 °C.
In the case of `O=C(O)[C@@H]1CSC(c2ccc(O)c(O)c2)=N1` [Compound 102, (4R)-2-(3,4-dihydroxyphenyl)-4,5-dihydrothiazole-4-carboxylic acid], the melting point is reported as 178 to 179 °C and the “scavenging effects … compared with trolox” value [3] is reported as “as high scavenging effects on ROS generated by vascular endothelial cells as trolox”.
For `COc1cc(-c2nc3cc(C(F)(F)F)ccc3s2)cc(OC)c1O` [Compound 40, 2,6-dimethoxy-4-(5-(trifluoromethyl)benzo[d]thiazol-2-yl)phenol], the “PPARα activation … compared with fenofibrate” value [1] was “very excellent PPARα activation agent compared to fenofibrate”, the “simultaneous activation” value [1] was “simultaneously activates PPARα and PPARγ” and the “PPARγ activation … compared with rosiglitazone” value [2] was “very excellent PPARγ activation agent compared to rosiglitazone”. It also gave a melting point of 220.6 to 222.6 °C.
With `COc1cc(C2NCCS2)cc(OC)c1O` (centres unmarked) [Compound 80, 2,6-dimethoxy-4-(thiazolidin-2-yl)phenol] the “scavenging effects … compared with trolox” value [3] was “as high scavenging effects on ROS generated by vascular endothelial cells as trolox”.
In the case of `O=C(O)[C@@H]1CSC(c2ccc(O)c(O)c2)N1` (mixture of isomers) [Compound 2, (2R/S,4R)-2-(3,4-dihydroxyphenyl)thiazolidine-4-carboxylic acid], the melting point is reported as 195.5 to 196.8 °C and the “scavenging effects … compared with trolox” value [3] is reported as “as high scavenging effects on ROS generated by vascular endothelial cells as trolox”.
For `Oc1ccc(-c2nc3cc(C(F)(F)F)ccc3s2)cc1` [Compound 28, 4-(5-(trifluoromethyl)benzo[d]thiazol-2-yl)phenol], the “PPARα activation … compared with fenofibrate” value [1] was “very excellent PPARα activation agent compared to fenofibrate”, the “simultaneous activation” value [1] was “simultaneously activates PPARα and PPARγ” and the “PPARγ activation … compared with rosiglitazone” value [2] was “very excellent PPARγ activation agent compared to rosiglitazone”. It also gave a melting point of 187.2 to 188.9 °C.
With `CCOc1cc(-c2nc3cc(C(F)(F)F)ccc3s2)ccc1O` [Compound 32, 2-ethoxy-4-(5-(trifluoromethyl)benzo[d]thiazol-2-yl)phenol] the “PPARα activation … compared with fenofibrate” value [1] was “very excellent PPARα activation agent compared to fenofibrate”, the “simultaneous activation” value [1] was “simultaneously activates PPARα and PPARγ” and the “PPARγ activation … compared with rosiglitazone” value [2] was “very excellent PPARγ activation agent compared to rosiglitazone”. The melting point was 117 to 117.8 °C.
For `Oc1ccc(-c2nc3cc(C(F)(F)F)ccc3s2)cc1O` [Compound 29, 4-(5-(trifluoromethyl)benzo[d]thiazol-2-yl)benzene-1,2-diol], the melting point was 267.3 to 269.4 °C and the “scavenging effects … compared with trolox” value [3] was “as high scavenging effects on ROS generated by vascular endothelial cells as trolox”.
In the case of `COc1cc(-c2nc3ccccc3s2)cc(OC)c1O` [Compound 25, 4-(benzo[d]thiazol-2-yl)-2,6-dimethoxyphenol], the “PPARα activation … compared with fenofibrate” value [1] is reported as “very excellent PPARα activation agent compared to fenofibrate”, the “simultaneous activation” value [1] is reported as “simultaneously activates PPARα and PPARγ” and the “PPARγ activation … compared with rosiglitazone” value [2] is reported as “very excellent PPARγ activation agent compared to rosiglitazone”. For the same molecule, the melting point was 153.5 to 156.1 °C.
With `CCOc1cc(-c2nc3cc(Cl)ccc3s2)ccc1O` [Compound 86, 4-(5-chlorobenzo[d]thiazol-2-yl)-2-ethoxyphenol] the “PPARα activation … compared with fenofibrate” value [1] was “very excellent PPARα activation agent compared to fenofibrate”, the “simultaneous activation” value [1] was “simultaneously activates PPARα and PPARγ” and the “PPARγ activation … compared with rosiglitazone” value [2] was “very excellent PPARγ activation agent compared to rosiglitazone”. It also gave a melting point of 102.1 to 103.4 °C.
In the case of `COC(=O)[C@@H]1CSC(c2ccc(O)c(O)c2)N1` (mixture of isomers) [Compound 104, (2R/S,4R)-methyl 2-(3,4-dihydroxyphenyl)thiazolidine-4-carboxylate], the melting point is reported as 116 to 118 °C and the “scavenging effects … compared with trolox” value [3] is reported as “as high scavenging effects on ROS generated by vascular endothelial cells as trolox”.
For `O=C(O)c1ccc2[nH]c(-c3ccc(O)cc3O)nc2c1` [Compound 59, 2-(2,4-dihydroxyphenyl)-1H-benzo[d]imidazole-5-carboxylic acid], the “PPARα activation … compared with fenofibrate” value [1] was “very excellent PPARα activation agent compared to fenofibrate”, the “simultaneous activation” value [1] was “simultaneously activates PPARα and PPARγ” and the “PPARγ activation … compared with rosiglitazone” value [2] was “very excellent PPARγ activation agent compared to rosiglitazone”. For the same molecule, the melting point was > 300 °C.
For `Oc1ccc(-c2nc3ccccc3s2)cc1O` [Compound 14, 4-(benzo[d]thiazol-2-yl)benzene-1,2-diol], the “scavenging effects … compared with trolox” value [3] was “as high scavenging effects on ROS generated by vascular endothelial cells as trolox”.
In the case of `Oc1ccc(C2NCCS2)cc1O` (centres unmarked) [Compound 72, 4-(Thiazolidin-2-yl)benzene-1,2-diol], the “scavenging effects … compared with trolox” value [3] is reported as “as high scavenging effects on ROS generated by vascular endothelial cells as trolox”.
In the case of `COC(=O)c1csc(-c2ccc(OC(C)=O)c(OC(C)=O)c2)n1` [Compound 103, 4-(4-(Methoxycarbonyl)thiazol-2-yl)-1,2-phenylene diacetate], the melting point is reported as 137 to 138 °C and the “scavenging effects … compared with trolox” value [3] is reported as “as high scavenging effects on ROS generated by vascular endothelial cells as trolox”.
For `Oc1ccc(-c2nc3cc(Cl)ccc3s2)cc1Br` [Compound 95, 2-bromo-4-(5-chlorobenzo[d]thiazol-2-yl)phenol], the “PPARα activation … compared with fenofibrate” value [1] was “very excellent PPARα activation agent compared to fenofibrate”, the “simultaneous activation” value [1] was “simultaneously activates PPARα and PPARγ” and the “PPARγ activation … compared with rosiglitazone” value [2] was “very excellent PPARγ activation agent compared to rosiglitazone”. It also gave a melting point of 226 to 228.1 °C.
